According to patent US20260216182A1, “PYRIDAZINE NLRP3 INHIBITOR COMPOUND, PHARMACEUTICAL COMPOSITION, AND PREPARATION METHOD THEREFOR AND USE THEREOF” (CHANGCHUN GENESCIENCE PHARMACEUTICAL CO., LTD., priority 2022, published 2026):

molecular target: T1, NLRP3 (Homo sapiens, UniProt Q96P20); assay: IC50 of NLRP3 inhibitors in reducing IL-1β secretion by THP-1 cells (PMA, LPS, nigericin; ELISA); type: cell-based; conditions: compound + nigericin 1 h
T1 construct: endogenous in cells; host or cells: THP-1 (human monocyte, PMA-differentiated, LPS-primed, nigericin-stimulated)
Method: Test Example 1 Experiment on Detection of IC50 of NLRP3 Inhibitors in Reducing the Level of IL-1β Secretion by THP-1 Cells
In this experiment, we use the human monocyte THP-1 to study the inhibitory activity of NLRP3 inhibitor on the secretion of IL-Iβ by cells. Human THP-1 cells are treated with crotonol-12-tetradecanoate-13-acetate (PMA) to differentiate into mature macrophage models. Then, according to the two stages of inflammasome formation in cells (assembly and activation), the cells are stimulated with lipopolysaccharide (LPS) and nigericin in turn, ultimately promoting the extracellular release of IL-1β by THP-1 cells. The first stage of inflammasome formation involves stimulating cells with LPS (lipopolysaccharide), an agonist of the Toll-like receptor TLR4, to activate the expression of the inflammasome-associated proteins NLRP3, caspase 1, and pro-IL-1β, a precursor of IL-1β. The second stage of inflammasome formation involves the addition of the potassium ion carrier nigericin, which causes a series of membrane potential changes in THP-1 cells, destroys the cell membrane structure, causes the efflux of cellular potassium ions, further stimulates the oligomerization of NLRP3 monomers to form NLRP3 oligomers, and begins to recruit ASC and pro-caspase-1 to assemble the NLRP3 inflammasome complex containing a large amount of pro-caspase-1. The pro-caspase-1 on the activated NLRP3 inflammasome is enzymatically self-activated to form a large amount of active caspase-1. The activated caspase-1 further enzymatically promotes the conversion of pro-IL-1β into mature IL-1β that can be secreted.
(1) Cell suspensions were collected. The cells were centrifuged at 1000 rpm for 4 min, the supernatant was discarded, the cells were resuspended with 1 mL of test medium, and then the cell culture medium was gently pipetted up and down with a pipette and its tip to break up the cell aggregates. After counting the cells, the THP-1 cells were resuspended with complete RPMI medium 1640 containing PMA and seeded into 96-well plates and cultured in a 37° C., 5% CO2 incubator for 72 h.
(2) The culture medium was taken out from each well with an automatic plate washer dispenser EL406 and each well was rinsed twice with PBS. To each well, 96 μL of RPMI 1640 medium containing LPS was added. The cells were cultured in a 37° C., 5% CO2 incubator for 4 h.
(3) To each well, 2 μL of the compound and 2 μL of nigericin sodium salt were added, and the final compound concentration selected was 5000 nM, 1000 nM, 200 nM, 40 nM, 8 nM, 1.6 nM, 0.32 nM, 0 nM, respectively. The cells were cultured in a 37° C., 5% CO2 incubator for 1 h.
(4) An appropriate amount of supernatant was taken out, diluted 100 times, and the content of IL-1β in the supernatant was detected using Human IL-1 beta Valukine ELISA kit.

T1 sequence (Q96P20 whole entry): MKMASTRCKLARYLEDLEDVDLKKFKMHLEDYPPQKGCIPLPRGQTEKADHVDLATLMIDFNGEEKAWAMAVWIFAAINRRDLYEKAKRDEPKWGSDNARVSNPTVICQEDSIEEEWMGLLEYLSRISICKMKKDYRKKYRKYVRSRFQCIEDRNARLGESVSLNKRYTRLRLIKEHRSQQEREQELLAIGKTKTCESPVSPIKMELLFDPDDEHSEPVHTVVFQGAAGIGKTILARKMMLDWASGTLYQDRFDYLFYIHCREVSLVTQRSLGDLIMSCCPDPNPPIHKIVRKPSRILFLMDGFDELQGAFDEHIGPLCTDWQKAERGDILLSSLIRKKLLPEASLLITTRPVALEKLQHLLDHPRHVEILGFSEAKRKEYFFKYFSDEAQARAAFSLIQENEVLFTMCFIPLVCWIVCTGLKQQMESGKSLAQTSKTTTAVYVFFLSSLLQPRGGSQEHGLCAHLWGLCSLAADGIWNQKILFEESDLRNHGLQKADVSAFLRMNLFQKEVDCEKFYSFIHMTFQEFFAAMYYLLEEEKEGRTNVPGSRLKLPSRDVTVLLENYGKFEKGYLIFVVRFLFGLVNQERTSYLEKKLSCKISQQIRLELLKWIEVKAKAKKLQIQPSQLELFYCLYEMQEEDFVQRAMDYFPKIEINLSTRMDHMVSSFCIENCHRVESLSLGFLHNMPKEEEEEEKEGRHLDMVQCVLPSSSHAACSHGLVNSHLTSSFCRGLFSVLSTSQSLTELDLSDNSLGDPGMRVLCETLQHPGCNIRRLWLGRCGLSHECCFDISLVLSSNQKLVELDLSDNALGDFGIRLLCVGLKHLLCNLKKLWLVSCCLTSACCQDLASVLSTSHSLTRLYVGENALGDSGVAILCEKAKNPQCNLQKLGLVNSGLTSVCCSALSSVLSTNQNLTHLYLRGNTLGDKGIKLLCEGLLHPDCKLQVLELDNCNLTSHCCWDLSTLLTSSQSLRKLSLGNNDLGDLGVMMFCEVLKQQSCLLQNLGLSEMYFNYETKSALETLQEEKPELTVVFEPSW

CC#Cc1ccc2c(-c3c(C)cc(Cl)cc3O)nnc(NC[C@@H](C)O)c2c1 (mixture of isomers) [Compound 035] and CC#Cc1ccc2c(-c3c(C)cc(Cl)cc3O)nnc(NCC(C)(C)O)c2c1 [Compound 024, 5-chloro-2-(4-((2-hydroxy-2-methylpropyl)amino)-6-(1-propyn-1-yl)phthalazin-1-yl)-3-methylphenol] are within 1.5-fold of each other in IC50: 14 nM for the first, 19 nM for the second.

CC(C(=O)NC1CC1)N1CCC[C@@H](Nc2nnc(-c3ccc(Cl)cc3O)c3ccncc23)C1 (mixture of isomers) [Compound 041, 2-((R)-3-((1-(4-chloro-2-hydroxyphenyl)pyrido[3,4-d]pyridazin-4-yl)amino)piperidin-1-yl)-N-cyclopropylpropionamide] and C[C@@H](C(N)=O)N1CCC[C@@H](Nc2nnc(-c3ccc(Cl)cc3O)c3ccncc23)C1 [Compound 016, (S)-2-((R)-3-((1-(4-chloro-2-hydroxyphenyl)pyrido[3,4-d]pyridazin-4-yl)amino)piperidin-1-yl) propionamide] are within 1.5-fold of each other in IC50: 14 nM for the first, 11 nM for the second.

First: CC(C)(O)CNc1nnc(-c2ccc(Cl)cc2O)c2ccc(C#N)cc12 [Compound 001, 1-(4-chloro-2-hydroxyphenyl)-4-((2-hydroxy-2-methylpropyl)amino) phthalazin-6-carbonitrile]
Second: CC#Cc1ccc2c(-c3ccc(Cl)cc3O)nnc(NCC(C)(C)O)c2c1 [Compound 036, 5-chloro-2-(4-((2-hydroxy-2-methylpropyl)amino)-6-(prop-1-yn-1-yl)phthalazin-1-yl)phenol]
The IC50 of the first is 1.7-fold higher: 88 nM for the first, 51 nM for the second.

Going from Cn1cc(-c2ccc3c(-c4ccc(Cl)cc4O)nnc(NCC(C)(C)O)c3c2)cn1 [Compound 004, 5-chloro-2-(4-((2-hydroxy-2-methylpropyl)amino)-6-(1-methyl-1H-pyrazol-4-yl)phthalazin-1-yl)phenol] to Cc1cc(Cl)cc(O)c1-c1nnc(NCC(C)(C)O)c2cc(-c3cnn(C)c3)ccc12 [Compound 038], the IC50 falls from 63 nM to 42 nM (1.5-fold).

Going from N#Cc1ccc2c(-c3ccc(Cl)cc3O)nnc(N[C@@H]3CCCN(C(=O)C4CC4)C3)c2c1 [Compound 005, (R)-1-(4-chloro-2-hydroxyphenyl)-4-((1-(cyclopropanecarbonyl)piperidin-3-yl)amino) phthalazin-6-carbonitrile] to O=C(C1CC1)N1CCC[C@@H](Nc2nnc(-c3ccc(Cl)cc3O)c3ccncc23)C1 [Compound 006, (R)-(3-((1-(4-chloro-2-hydroxyphenyl)pyrido[3,4-d]pyridazin-4-yl)amino)piperidin-1-yl)(cyclopropyl)methanone], the IC50 falls from 37 nM to 12 nM (3.1-fold).

Going from Cc1cc(C(F)(F)F)cc(O)c1-c1nnc(NCC(C)(C)O)c2cc(C#N)ccc12 [Compound 007, 4-((2-hydroxy-2-methylpropyl)amino)-1-(2-hydroxy-6-methyl-4-(trifluoromethyl)phenyl) phthalazin-6-carbonitrile] to CC#Cc1ccc2c(-c3c(C)cc(Cl)cc3O)nnc(NCC(C)(C)O)c2c1 [Compound 024-1], the IC50 rises from 29 nM to 108 nM (3.7-fold).

First: NC(=O)N1CCC[C@@H](Nc2nnc(-c3ccc(Cl)cc3O)c3ccncc23)C1 [Compound 008, (R)-3-((1-(4-chloro-2-hydroxyphenyl)pyrido[3,4-d]pyridazin-4-yl)amino)piperidin-1-formamide]
Second: COC(=O)N1CCC[C@@H](Nc2nnc(-c3ccc(Cl)cc3O)c3ccncc23)C1 [Compound 010, Methyl (R)-3-((1-(4-chloro-2-hydroxyphenyl)pyrido[3,4-d]pyridazin-4-yl)amino)piperidin-1-carboxylate]
The IC50 of the first is 2.4-fold higher: 39 nM for the first, 16 nM for the second.

Compared with NC(=O)CN1CCC[C@@H](Nc2nnc(-c3ccc(Cl)cc3O)c3ccncc23)C1 [Compound 009, (R)-2-(3-((1-(4-chloro-2-hydroxyphenyl)pyrido[3,4-d]pyridazin-4-yl)amino)piperidin-1-yl)acetamide], C[C@H](C(N)=O)N1CCC[C@@H](Nc2nnc(-c3ccc(Cl)cc3O)c3ccncc23)C1 [Compound 017, (R)-2-((R)-3-((1-(4-chloro-2-hydroxyphenyl)pyrido[3,4-d]pyridazin-4-yl)amino)piperidin-1-yl) propionamide] is 1.6-fold lower in IC50: 28 nM for the first, 17 nM for the second. The second is the more potent here.

Compared with CC(C)(O)CNc1nnc(-c2ccc3sccc3c2O)c2ccc(C#N)cc12 [Compound 018, 4-((2-hydroxy-2-methylpropyl)amino)-1-(4-hydroxybenzo[b]thiophen-5-yl) phthalazine-6-carbonitrile], CC(C)(O)CNc1nnc(-c2ccc3sc(F)cc3c2O)c2ccc(C#N)cc12 [Compound 019, 1-(2-fluoro-4-hydroxybenzo[b]thiophen-5-yl)-4-((2-hydroxy-2-methylpropyl)amino) phthalazine-6-carbonitrile] is 2.2-fold higher in IC50: 50 nM for the first, 111 nM for the second.

Compared with Cc1cc(Cl)cc(O)c1-c1nnc(NCC(C)(C)O)c2cc(-n3cccn3)ccc12 [Compound 026, 5-chloro-2-(4-((2-hydroxy-2-methylpropyl)amino)-6-(1H-pyrazol-1-yl)phthalazin-1-yl)-3-methylphenol], Cc1cc(Cl)cc(O)c1-c1nnc(NCC(C)(C)O)c2cc(-n3ccnn3)ccc12 [Compound 058, 5-chloro-2-(4-((2-hydroxy-2-methylpropyl)amino)-6-(1H-1,2,3-triazol-1-yl)phthalazin-1-yl)-3-methylphenol] is 4.5-fold higher in IC50: 35 nM for the first, 158 nM for the second. The first is the more potent here.

Going from Cc1cc(Cl)cc(O)c1-c1nnc(NCC(C)(C)O)c2cc(-n3nccn3)ccc12 [Compound 028, 5-chloro-2-(4-((2-hydroxy-2-methylpropyl)amino)-6-(2H-1,2,3-triazol-2-yl)phthalazin-1-yl)-3-methylphenol] to Cc1cc(Cl)cc(O)c1-c1nnc(NCC(C)(C)O)c2cc(-c3ccn(C)n3)ccc12 [Compound 040, 5-chloro-2-(4-((2-hydroxy-2-methylpropyl)amino)-6-(1-methyl-1H-pyrazol-3-yl)phthalazin-1-yl)-3-methylphenol], the IC50 rises from 35 nM to 54 nM (1.5-fold).

Compared with Cc1cc(Cl)cc(O)c1-c1nnc(NCC(C)(C)O)c2cc(-c3cnn(C4CC4)c3)ccc12 [Compound 039, 5-chloro-2-(6-(1-cyclopropyl-1H-pyrazol-4-yl)-4-((2-hydroxy-2-methylpropyl)amino)phthalazin-1-yl)-3-methylphenol], CCn1cc(-c2ccc3c(-c4c(C)cc(Cl)cc4O)nnc(NCC(C)(C)O)c3c2)cn1 [Compound 051, 5-chloro-2-(6-(1-ethyl-1H-pyrazol-4-yl)-4-((2-hydroxy-2-methylpropyl)amino)phthalazin-1-yl)-3-methylphenol] is 1.6-fold lower in IC50: 73 nM for the first, 46 nM for the second.

First: CC(C(=O)N1CCCC1)N1CCC[C@@H](Nc2nnc(-c3ccc(Cl)cc3O)c3ccncc23)C1 (stereo partly drawn) [Compound 042]
Second: CC(C)(C(=O)NC1CC1)N1CCC[C@@H](Nc2nnc(-c3ccc(Cl)cc3O)c3ccncc23)C1 [Compound 043, (R)-2-(3-((1-(4-chloro-2-hydroxyphenyl)pyrido[3,4-d]pyridazin-4-yl)amino)piperidin-1-yl)-N-cyclopropyl-2-methylpropionamide]
The IC50 of the first is 2.4-fold lower: 14 nM for the first, 34 nM for the second.

CC#Cc1ccc2c(-c3ccc(C(F)(F)F)cc3O)nnc(NC[C@H](O)CO)c2c1 [Compound 056, (S)-3-((4-(2-hydroxy-4-(trifluoromethyl)phenyl)-7-(prop-1-yn-1-yl)phthalazin-1-yl)amino) propan-1,2-diol] and CC#Cc1ccc2c(-c3ccc(C(F)(F)F)cc3O)nnc(N[C@H]3C[C@@](C)(O)C3)c2c1 [Compound 065, 2-(4-(((1S, 3S)-3-hydroxy-3-methylcyclobutyl)amino)-6-(prop-1-yn-1-yl)phthalazin-1-yl)-5-(trifluoromethyl)phenol] are within 1.5-fold of each other in IC50: 18 nM for the first, 13 nM for the second.

CC#Cc1ccc2c(-c3ccc(C(F)(F)F)cc3O)nnc(N[C@@H]3CCCC[C@H]3O)c2c1 [Compound 061, 2-(4-(((1R,2R)-2-hydroxycyclohexyl)amino)-6-(prop-1-yn-1-yl)phthalazin-1-yl)-5-(trifluoromethyl)phenol] and CC#Cc1ccc2c(-c3c(O)cc(C(F)(F)F)cc3F)nnc(N[C@H]3C[C@@](C)(O)C3)c2c1 [Compound 066, 3-fluoro-2-(4-(((1S,3S)-3-hydroxy-3-methylcyclobutyl)amino)-6-(prop-1-yn-1-yl)phthalazin-1-yl)-5-(trifluoromethyl)phenol] are within 1.5-fold of each other in IC50: 23 nM for the first, 20 nM for the second.
